According to patent publication US20250333397A1 (REMIX THERAPEUTICS INC., priority 2021, published 2025):
Read-outs that look alike come from different tables or passages of the source.

Legend:
Type in all cases: cell-based, human
[1] = test system: Target C mRNA; experiment: RT-qPCR splicing assay panel, Target C canonical junction (CJ) mRNA; conditions: Homo sapiens
Summary of the method: (§1)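 CJ and AJ junction levels were quantified by RT-qPCR on lysates, with housekeeper ΔCt normalized to DMSO (ΔΔCt) and expressed as RQ = 2^(-ΔΔCt). Before lysis, K562 or A673 cells had 24 h compound exposure at 37 °C. Dosing was 11 points, 3-fold, from 10 uM final, with DMSO at most 0.25%.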

[2] = test system: HTT mRNA; experiment: RT-qPCR splicing assay, HTT canonical (CJ) and alternative (AJ) junction mRNA; conditions: Homo sapiens; for AC50: read-out: HTT AJ (AC50, increase in AJ mRNA)
Summary of the method: as §1

[3] = test system: MYB mRNA; experiment: RT-qPCR splicing assay, MYB canonical (CJ) and alternative (AJ) junction mRNA; conditions: for AC50: read-out: MYB AJ (AC50, increase in AJ mRNA)
Summary of the method: as §1

[4] = test system: SMN2 mRNA; experiment: RT-qPCR splicing assay panel, SMN2 canonical junction (CJ) mRNA; conditions: Homo sapiens
Summary of the method: as §1

[5] = canonical junction (CJ) mRNA, RT-qPCR panel, Table 4A, read-out: Target C, decrease in CJ mRNA levels, IC50
[6] = 24 h, Table 3A, A673 or K562 cells, 24 h treatment
[7] = 24 h, Table 3A, A673 or K562 cells, 24 h treatment, read-out: HTT CJ (IC50, decrease in CJ mRNA)
[8] = canonical junction (CJ) mRNA, RT-qPCR panel, Table 4A, read-out: HTT, decrease in CJ mRNA levels, IC50
[9] = Homo sapiens, 24 h, Table 3A, A673 or K562 cells, 24 h treatment
[10] = Homo sapiens, 24 h, Table 3A, A673 or K562 cells, 24 h treatment, read-out: MYB CJ (IC50, decrease in CJ mRNA)
[11] = Homo sapiens, canonical junction (CJ) mRNA, RT-qPCR panel, Table 4A, read-out: MYB, decrease in CJ mRNA levels, IC50
[12] = canonical junction (CJ) mRNA, RT-qPCR panel, Table 4A, read-out: SMN2, decrease in CJ mRNA levels, IC50
[13] = Table 4B, gene panel, read-out: Target C (IC50, decrease in CJ mRNA levels)
[14] = 24 h, Table 3B, A673 or K562 cells, 24 h treatment
[15] = 24 h, Table 3B, A673 or K562 cells, 24 h treatment, read-out: HTT CJ (IC50, decrease in CJ mRNA)
[16] = Table 4B, gene panel, read-out: HTT (IC50, decrease in CJ mRNA levels)
[17] = Homo sapiens, 24 h, Table 3B, A673 or K562 cells, 24 h treatment
[18] = Homo sapiens, 24 h, Table 3B, A673 or K562 cells, 24 h treatment, read-out: MYB CJ (IC50, decrease in CJ mRNA)
[19] = Homo sapiens, Table 4B, gene panel, read-out: MYB (IC50, decrease in CJ mRNA levels)
[20] = Table 4B, gene panel, read-out: SMN2 (IC50, decrease in CJ mRNA levels)

Structure (SMILES)	IC50 [1, 5]	IC50 [2, 7]	IC50 [2, 8]	IC50 [3, 10]	IC50 [3, 11]	IC50 [4, 12]	IC50 [1, 13]	IC50 [2, 15]	IC50 [2, 16]	IC50 [3, 18]	IC50 [3, 19]	IC50 [4, 20]	AC50 [2, 6]	AC50 [3, 9]	AC50 ([3]; Table 3A, A673 or K562 cells, 24 h treatment)	AC50 [2, 14]	AC50 [3, 17]
Cc1cn(-c2cc(O)c(-c3ccc(N4CC[C@H](NC5CCC5)C4)nn3)cc2F)cn1 [Compound 227, 2-{6-[(3S)-3-(cyclobutylamino)pyrrolidin-1-yl]pyridazin-3-yl}-4-fluoro-5-(4-methylimidazol-1-yl)phenol]	100 to 1000 nM	< 100 nM	< 100 nM	100 to 1000 nM	100 to 1000 nM	< 100 nM	–	–	–	–	–	–	< 100 nM	100 to 1000 nM	–	–	–
COc1cc(-c2cc(O)c(-c3cnc(N4CC[C@H](NC5CCC5)C4)nn3)cc2F)cnn1 [Compound 321, 2-{3-[(3S)-3-(cyclobutylamino)pyrrolidin-1-yl]-1,2,4-triazin-6-yl}-4-fluoro-5-(6-methoxypyridazin-4-yl)phenol]	100 to 1000 nM	100 to 1000 nM	100 to 1000 nM	1000 to 10000 nM	1000 to 10000 nM	100 to 1000 nM	–	–	–	–	–	–	100 to 1000 nM	1000 to 10000 nM	–	–	–
CC(C)(C)NC1CCN(c2ccc(-c3cc4ccncc4cc3O)nn2)C1 (stereo not drawn) [Compound 845]	–	–	–	–	–	–	100 to 1000 nM	< 100 nM	< 100 nM	100 to 1000 nM	100 to 1000 nM	< 100 nM	–	–	–	< 100 nM	100 to 1000 nM
Cc1ncc(-c2cc(O)c(-c3ccc(N4CCC(NC5CCOC5)C4)nn3)cc2F)s1 (stereo not drawn) [Compound 350, 4-fluoro-5-(2-methyl-1,3-thiazol-5-yl)-2-{6-[3-(oxolan-3-ylamino)pyrrolidin-1-yl]pyridazin-3-yl}phenol]	< 100 nM	< 100 nM	< 100 nM	< 100 nM	< 100 nM	< 100 nM	–	–	–	–	–	–	< 100 nM	100 to 1000 nM	–	–	–
Oc1cc(-c2ccc(-c3ccc(N4CC[C@@H](NC5CCC5)C4)nn3)c(O)c2)cnn1 [Compound 419, 5-(4-{6-[(3R)-3-(cyclobutylamino)pyrrolidin-1-yl]pyridazin-3-yl}-3-hydroxyphenyl)pyridazin-3-ol]	1000 to 10000 nM	100 to 1000 nM	100 to 1000 nM	1000 to 10000 nM	1000 to 10000 nM	100 to 1000 nM	–	–	–	–	–	–	1000 to 10000 nM	> 10000 nM	–	–	–
CCC(C)(C)NC1CCN(c2ccc(-c3cc4oc(C)nc4cc3O)nn2)C1 (stereo not drawn) [Compound 836]	–	–	–	–	–	–	1000 to 10000 nM	100 to 1000 nM	100 to 1000 nM	1000 to 10000 nM	1000 to 10000 nM	100 to 1000 nM	–	–	–	1000 to 10000 nM	1000 to 10000 nM
Cc1ncc(-c2cc(O)c(-c3ccc(N4CC[C@@H](NC5CCC5)C4)nn3)cc2F)o1 [Compound 228, 2-{6-[(3R)-3-(cyclobutylamino)pyrrolidin-1-yl]pyridazin-3-yl}-4-fluoro-5-(2-methyl-1,3-oxazol-5-yl)phenol]	100 to 1000 nM	100 to 1000 nM	100 to 1000 nM	100 to 1000 nM	100 to 1000 nM	< 100 nM	–	–	–	–	–	–	100 to 1000 nM	100 to 1000 nM	–	–	–
COc1cncc(-c2cc(O)c(-c3ccc(N4CC[C@@H](NC5CCC5)C4)nn3)cc2F)c1 [Compound 225, 2-{6-[(3R)-3-(cyclobutylamino)pyrrolidin-1-yl]pyridazin-3-yl}-4-fluoro-5-(5-methoxypyridin-3-yl)phenol]	> 10000 nM	> 10000 nM	> 10000 nM	> 10000 nM	> 10000 nM	> 10000 nM	–	–	–	–	–	–	> 10000 nM	> 10000 nM	–	–	–
Cc1cc(-c2ccc(-c3ccc(N4CCC(NCC5CC5)C4)nn3)c(O)c2)ncn1 (stereo not drawn) [Compound 369]	1000 to 10000 nM	1000 to 10000 nM	1000 to 10000 nM	1000 to 10000 nM	1000 to 10000 nM	100 to 1000 nM	–	–	–	–	–	–	1000 to 10000 nM	1000 to 10000 nM	–	–	–
Cc1nnc(-c2cc(O)c(-c3ccc(N4CC[C@H](NC5CCC5)C4)nn3)cc2F)s1 [Compound 358]	1000 to 10000 nM	100 to 1000 nM	100 to 1000 nM	1000 to 10000 nM	1000 to 10000 nM	100 to 1000 nM	–	–	–	–	–	–	1000 to 10000 nM	1000 to 10000 nM	–	–	–
Cn1cc2cc(-c3ccc(N4CCC(NC(C)(C)C)C4)nn3)c(O)cc2n1 (stereo not drawn) [Compound 801]	–	–	–	–	–	–	1000 to 10000 nM	1000 to 10000 nM	1000 to 10000 nM	1000 to 10000 nM	1000 to 10000 nM	100 to 1000 nM	–	–	–	1000 to 10000 nM	1000 to 10000 nM
Cc1nc2cc(O)c(-c3ccc(N4CCC(NC(C)(C)C(C)(C)C)C4)nn3)cc2o1 (stereo not drawn) [Compound 835]	–	–	–	–	–	–	100 to 1000 nM	100 to 1000 nM	100 to 1000 nM	100 to 1000 nM	100 to 1000 nM	100 to 1000 nM	–	–	–	100 to 1000 nM	100 to 1000 nM
COc1nc(-c2ccc(N3CC[C@@H](NC(C)(C)C)C3)nn2)ccc1-c1cnc(C)s1 [Compound 405]	< 100 nM	< 100 nM	< 100 nM	< 100 nM	< 100 nM	< 100 nM	–	–	–	–	–	–	< 100 nM	< 100 nM	–	–	–
COCCc1cc(-c2ccc(-c3ccc(N4CCC(NC5CCC5)C4)nn3)c(O)c2)cnn1 (stereo not drawn) [Compound 430]	> 10000 nM	> 10000 nM	> 10000 nM	> 10000 nM	> 10000 nM	> 10000 nM	–	–	–	–	–	–	> 10000 nM	> 10000 nM	–	–	–

Further lines, with some results ahead:

IC50 [1, 5]	IC50 [2, 7]	IC50 [2, 8]	IC50 [3, 10]	IC50 [3, 11]	IC50 [4, 12]	IC50 [1, 13]	IC50 [2, 15]	IC50 [2, 16]	IC50 [3, 18]	IC50 [3, 19]	IC50 [4, 20]	Structure (SMILES)	AC50 [2, 6]	AC50 [3, 9]	AC50 ([3]; Table 3A, A673 or K562 cells, 24 h treatment)	AC50 [2, 14]	AC50 [3, 17]
100 to 1000 nM	< 100 nM	< 100 nM	100 to 1000 nM	100 to 1000 nM	< 100 nM	–	–	–	–	–	–	COc1cc(-c2ccc(-c3ccc(N4CC[C@@H](NCC5CC5)C4)nn3)c(O)c2)cnn1 [Compound 288]	100 to 1000 nM	100 to 1000 nM	–	–	–
100 to 1000 nM	< 100 nM	< 100 nM	100 to 1000 nM	100 to 1000 nM	< 100 nM	–	–	–	–	–	–	COc1cc(-c2ccc(-c3ccc(N4CC[C@](C)(NCC5CC5)C4)nn3)c(O)c2)ncn1 [Compound 376, 2-{6-[(3S)-3-[(cyclopropylmethyl)amino]-3-methylpyrrolidin-1-yl]pyridazin-3-yl}-5-(6-methoxypyrimidin-4-yl)phenol]	< 100 nM	100 to 1000 nM	–	–	–
100 to 1000 nM	100 to 1000 nM	100 to 1000 nM	100 to 1000 nM	100 to 1000 nM	100 to 1000 nM	–	–	–	–	–	–	CN([C@@H]1CCN(c2ccc(-c3ccc(-c4cn[nH]c4)cc3O)nn2)C1)C(C)(C)C [Compound 406, 2-{6-[(3R)-3-[tert-butyl(methyl)amino]pyrrolidin-1-yl]pyridazin-3-yl}-5-(1H-pyrazol-4-yl)phenol]	100 to 1000 nM	–	1000 to 10000 nM	–	–
> 10000 nM	1000 to 10000 nM	1000 to 10000 nM	> 10000 nM	> 10000 nM	100 to 1000 nM	–	–	–	–	–	–	CC1(C)CC(Oc2nnc(-c3ccc(-c4cn[nH]c4)cc3O)cc2C#N)CC(C)(C)N1 [Compound 423]	1000 to 10000 nM	> 10000 nM	–	–	–
100 to 1000 nM	< 100 nM	< 100 nM	100 to 1000 nM	100 to 1000 nM	100 to 1000 nM	–	–	–	–	–	–	COc1cc(-c2ccc(-c3ccc(N4CCC(NC5CC(F)(F)C5)C4)nn3)c(O)c2)cnn1 (stereo not drawn) [Compound 334, 2-(6-(3-((3,3-difluorocyclobutyl)amino)pyrrolidin-1-yl)pyridazin-3-yl)-5-(6-methoxypyridazin-4-yl)phenol]	100 to 1000 nM	1000 to 10000 nM	–	–	–
< 100 nM	< 100 nM	< 100 nM	< 100 nM	< 100 nM	< 100 nM	–	–	–	–	–	–	COc1cc(-c2ccc(-c3ccc(N4CC[C@@H](N(C)C(C)(C)C)C4)nn3)c(O)c2)cnn1 [Compound 336, 2-{6-[(3R)-3-[tert-butyl(methyl)amino]pyrrolidin-1-yl]pyridazin-3-yl}-5-(6-methoxypyridazin-4-yl)phenol]	< 100 nM	< 100 nM	–	–	–
100 to 1000 nM	< 100 nM	< 100 nM	100 to 1000 nM	100 to 1000 nM	< 100 nM	–	–	–	–	–	–	Oc1cc(-c2cn[nH]c2)c(F)cc1-c1ccc(N2CC[C@@H](NC3CC3)C2)nn1 [Compound 106, 2-{6-[(3R)-3-(cyclopropylamino)pyrrolidin-1-yl]pyridazin-3-yl}-4-fluoro-5-(1H-pyrazol-4-yl)phenol]	< 100 nM	100 to 1000 nM	–	–	–
